From US7932261B2, “Macrocycle derivatives useful as inhibitors of β-secretase (BACE)” (Janssen Pharmaceutica NV, priority 2006, dated 2011) come the findings set out here.

In experiment [1] the target is T1, β-secretase (BACE) (Homo sapiens, UniProt P56817).
T1 construct: purchased Panvera
The experiment is described as follows: in vitro BACE FS1 % Inhibition Assay (Example 13). The experiment is classed as biochemical. Particulars: FS1 substrate, pH 5; for inhibition at 0.3 µM: read-out: % Inhibition (Example 13) @ 0.3 μM; for inhibition at 1 µM: read-out: % Inhibition (Example 13) @ 1 μM; for inhibition at 3 µM: read-out: % Inhibition (Example 13) @ 3 μM. The protocol:
(§1) The following assay buffers were prepared and used in this assay: (1) enzyme assay buffer (0.05 M sodium acetate, pH5, 0.1% PEG8000 (w/v)), (2) substrate assay buffer (0.05 M sodium acetate, pH5), and (3) compound vehicle (30% DMSO in 50 mM HEPES, pH 7.4).
The FS1-substrate stock solution was prepared in DMSO as a 10 mg/mL solution. The FS1-substrate working solution was prepared by diluting the 10 mg/mL stock solution with substrate assay buffer to a final concentration of 300 μg/mL. The α-secretase (BACE) working solution was prepared by diluting a 0.83 mg/mL BACE stock solution with enzyme assay buffer to a final concentration of 4 μg/mL.
Test compounds were dissolved in DMSO to 10 mM.
The screening procedure for this assay was as follows: 15 μL of BACE working solution was pipetted into each well of a 96-well plate. To each well was then pipetted 2 μL of test compound at the selected concentration. Test compound and BACE were then mixed with a pipettor and incubated for 20 min at room temperature. To each well was then added 10 µL of the FS1 substrate working solution. The plates were then incubated for 1 hour at room temperature.
The procedure for the blank (negative control) was as follows. 15 μL of assay buffer was pipetted into each well to be used as a blank control. To each well was then added 2 μL of vehicle and 10 μL of FS1-substrate working solution. The plates were then incubated for 1 hour at room temperature.
The procedure for the positive control was as follows: 15 μL of BACE working solution was pipetted into each well to be used as a positive control. To each well was then pipetted 2 μL of vehicle. Vehicle and BACE were then mixed with a pipettor and incubated for 20 min at room temperature. To each well was then added 10 μL of the FS1 substrate working solution. The plates were then incubated for 1 hour at room temperature.
For test compounds, % inhibition was determined at each concentration as follows: […]

In experiment [2] the target is T1, β-secretase (BACE). The experiment is described as follows: in vitro BACE Assay, Ki (Example 14). The experiment is classed as biochemical. The protocol:
as §1
The FS1-substrate stock solution was prepared in DMSO as a 10 mg/mL solution. The FS1-substrate working solution was prepared by diluting the 10 mg/mL stock solution with substrate assay buffer to a final concentration of 300 μg/mL. The β-secretase (BACE) working solution was prepared by diluting a 0.83 mg/mL BACE stock solution with enzyme assay buffer to a final concentration of 4 μg/mL.
Test compounds were dissolved in DMSO at 10 mM.
The procedure for this assay was as follows: 15 μL of BACE working solution was pipetted into each well of a 96-well plate. To each well was then pipetted 2 μL of test compound at the selected concentration. Test compound and BACE were then mixed with a pipettor and incubated for 20 min at room temperature. To each well was then added 10 μL of the FS1 substrate working solution.
The procedure for the positive control was as follows: 15 μL of BACE working solution was pipetted into each well to be used as a positive control. To each well was then pipetted 2 μL of vehicle. Vehicle and BACE were then mixed with a pipettor and incubated for 20 min at room temperature. To each well was then added 10 μL of the FS1 substrate working solution.
For test compounds, Ki inhibition was determined as follows: For each compound concentration and positive control, rate of cleavage of substrate (Vi, where i=compound concentration in μM) was determined as Δ Fluorescence/Δ time (min). Cleavage rates (Vi) were plotted as a function of inhibitor concentration in μM [I]. The Ki was then determined by fitting the following equation to the graph of [I] vs. Vi Y=aVmax/(50+24*(1+X/Ki)),

Where two headings read alike, the source gives them in different places.

T1 sequence (P56817 46-501): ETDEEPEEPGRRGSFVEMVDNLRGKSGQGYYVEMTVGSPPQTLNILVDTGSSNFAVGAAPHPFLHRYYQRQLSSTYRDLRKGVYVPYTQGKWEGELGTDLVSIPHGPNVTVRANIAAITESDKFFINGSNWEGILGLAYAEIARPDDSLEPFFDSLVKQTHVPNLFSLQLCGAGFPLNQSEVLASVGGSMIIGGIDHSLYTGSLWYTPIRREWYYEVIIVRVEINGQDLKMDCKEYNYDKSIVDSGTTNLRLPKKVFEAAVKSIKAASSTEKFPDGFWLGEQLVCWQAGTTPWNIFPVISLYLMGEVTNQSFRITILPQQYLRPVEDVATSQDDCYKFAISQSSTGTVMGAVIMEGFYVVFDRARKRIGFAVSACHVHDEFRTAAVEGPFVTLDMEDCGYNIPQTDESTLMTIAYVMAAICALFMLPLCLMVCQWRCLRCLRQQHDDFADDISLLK

A word on the Ki: it is the dissociation constant of the complex between target and ligand, obtained from inhibition or displacement. Take `NC1=Nc2ccc3cc2CN1[C@H](C1CCOCC1)CCC(=O)NCCc1cccc(c1)O3` [Compound 21]: in experiment [1] (0.3 μM compound), the “% Inhibition (Example 13) @ 0.3 μM” value was found to be 54%. Further, in experiment [1] (1 μM compound), the “% Inhibition (Example 13) @ 1 μM” value is reported as 88%. In addition, the “% Inhibition (Example 13) @ 3 μM” value in experiment [1] (3 μM compound) is reported as 110%. Besides, in experiment [2] (read-out: (Example 14) Ki, FS1 substrate 50 μM, Km 24 μM, pH 5), the Ki was found to be 100 nM.
Usually inhibition stands for the relative decrease from the control value, in per cent. On to `CCOC(=O)C1CCC(N2CCc3cccc(c3)Oc3ccc4c(c3)CN(C(N)=N4)C(C(C)C)CCC2=O)CC1` (stereo not drawn) [Compound 22], for which the inhibition at 0.3 µM in experiment [1] (0.3 μM compound) turned out to be 25%. In addition, the inhibition at 1 µM in experiment [1] (1 μM compound) came to 48%. The inhibition at 3 µM in experiment [1] (3 μM compound) worked out at 83%. The compound further gave a Ki in experiment [2] of 750 nM.
Turning to `CC(C)[C@@H]1CCC(=O)N([C@H]2CC[C@@H](C(=O)O)CC2)CCc2cccc(c2)Oc2ccc3c(c2)CN1C(N)=N3` [Compound 23], the inhibition at 0.3 µM in experiment [1] (0.3 μM compound) is 106%. The inhibition at 1 µM in experiment [1] (1 μM compound) was determined as 108%. In addition, the inhibition at 3 µM in experiment [1] (3 μM compound) was determined as 114%. This compound gave an inhibition constant (Ki) in experiment [2] of 13 nM.
Taken in the same sequence, the figures for `CC(C)[C@@H]1CCC(=O)N([C@H]2CC[C@H](C(=O)O)CC2)CCc2cccc(c2)Oc2ccc3c(c2)CN1C(N)=N3` [Compound 24] were 27%, 43%, 77% and 420 nM.
In the case of `CC(C)[C@@H]1CCC(=O)N(CCCO)CCc2cccc(c2)Oc2ccc3c(c2)CN1C(N)=N3` [Compound 25], in experiment [1] (0.3 μM compound), the inhibition at 0.3 µM worked out at 65%. Further, in experiment [1] (1 μM compound), the inhibition at 1 µM turned out to be 99%. Further, the inhibition at 3 µM in experiment [1] (3 μM compound) came out at 111%. This compound displayed a Ki in experiment [2] of 44 nM.
Turning to `CC(C)[C@@H]1CCC(=O)N(C2CCCCC2)CCOc2cccc(c2)Oc2ccc3c(c2)CN1C(N)=N3` [Compound 27], in experiment [1] (0.3 μM compound), the inhibition at 0.3 µM came to 106%. The inhibition at 1 µM in experiment [1] (1 μM compound) was 117%. For the same compound, in experiment [1] (3 μM compound), the inhibition at 3 µM came out at 117%. The same compound displayed a Ki in experiment [2] of 11 nM.
